Values joined by “and” are separate entries in the source; they are usually repeats but may differ in a detail not shown here. Identical values can stand only once.
Key:
[1] = target: mGluR3 (Rattus norvegicus, UniProt P31422); assay: Calcium imaging (G protein chimera, GCaMP6f) in HEK 293 T cells
[2] = target: mGluR2-TMD (Rattus norvegicus, UniProt P31421); assay: SiMPull subunit counting in the presence of ligands; conditions: for % Dimerization: SNAP-mGluR2-TMD in presence of the ligand, single replicates per experiment day; for effect of ligand on dimerization (SiMPull): saturating concentration
mGluR2-TMD, sequence (P31421 558-821 limits assumed): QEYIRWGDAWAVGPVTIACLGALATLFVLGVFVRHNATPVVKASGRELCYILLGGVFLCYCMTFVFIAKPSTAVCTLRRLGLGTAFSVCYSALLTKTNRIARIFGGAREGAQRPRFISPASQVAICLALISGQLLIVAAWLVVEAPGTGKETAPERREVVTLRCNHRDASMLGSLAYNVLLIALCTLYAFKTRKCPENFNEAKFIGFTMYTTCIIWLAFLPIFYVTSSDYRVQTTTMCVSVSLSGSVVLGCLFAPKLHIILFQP

[3] = system: mGluR2-TMD-I779A; assay: as above; parameters: species or system rat; conditions: for % Dimerization: SNAP-mGluR2-TMD-I779A in presence of the ligand, single replicates per experiment day
[4] = target: T1, mGluR2-C121A-3xTM4-I779A (Rattus norvegicus, UniProt P31421, A677S/A681F/A685G/C121A/I779A); assay: as above; conditions: SNAP-mGluR2-C121A-3xTM4-I779A in presence of the ligand; single replicates per experiment day
T1 construct: expressed in transfected cells; host or cells: HEK 293 T (detergent lysate, pulled down by anti-HA antibody)
T1 sequence (P31421 19-872 C121A/A677S/A681F/A685G/I779A): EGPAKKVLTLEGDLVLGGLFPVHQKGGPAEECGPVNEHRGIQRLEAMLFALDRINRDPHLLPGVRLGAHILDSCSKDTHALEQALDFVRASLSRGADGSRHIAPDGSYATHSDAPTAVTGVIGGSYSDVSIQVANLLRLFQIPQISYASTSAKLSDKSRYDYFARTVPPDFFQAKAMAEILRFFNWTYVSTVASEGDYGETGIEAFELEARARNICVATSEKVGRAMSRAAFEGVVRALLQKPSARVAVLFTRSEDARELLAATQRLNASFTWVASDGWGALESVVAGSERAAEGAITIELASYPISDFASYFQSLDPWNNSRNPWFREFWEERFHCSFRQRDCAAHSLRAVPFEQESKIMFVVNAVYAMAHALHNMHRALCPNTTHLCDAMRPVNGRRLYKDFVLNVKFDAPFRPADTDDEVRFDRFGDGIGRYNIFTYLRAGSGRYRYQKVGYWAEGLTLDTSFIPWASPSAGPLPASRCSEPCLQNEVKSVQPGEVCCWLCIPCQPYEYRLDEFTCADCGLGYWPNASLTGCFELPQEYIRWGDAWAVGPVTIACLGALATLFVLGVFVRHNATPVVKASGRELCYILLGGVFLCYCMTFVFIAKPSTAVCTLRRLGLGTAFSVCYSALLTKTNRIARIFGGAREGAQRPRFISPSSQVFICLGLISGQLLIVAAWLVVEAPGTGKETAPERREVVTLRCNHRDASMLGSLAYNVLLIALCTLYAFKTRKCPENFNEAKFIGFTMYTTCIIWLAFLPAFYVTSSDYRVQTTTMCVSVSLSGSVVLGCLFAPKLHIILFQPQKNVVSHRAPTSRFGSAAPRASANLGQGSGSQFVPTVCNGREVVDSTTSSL

[5] = target: mGluR2 (Rattus norvegicus, UniProt P31421, INS660ASEIGTGFPFDPHYVEVLGERMHYVDVGPRDGTPVLFLHGNPTSSYVWRNIIPHVAPTHRCIAPDLIGMGKSDKPDLGYFFDDHVRFMDAFIEALGLEEVVLVIHDWGSALGFHWAKRNPERVKGIAFMEFIRPIPTWDEWPEFARETFQAFRTTDVGRKLIIDQNVFIEGTLPMGVVRPLTEVEMDHYREPFLNPVDREPLWRFPNELPIAGEPANIVALVEEYMDWLHQSPVPKLLFWGTPGVLIPPAEAARLAKSLPNCKAVDIGPGLNLLQEDNPDLIGSEIARWLSTLEISGLE); assay: Inter-TMD FRET sensor (HaloTag in ICL2), live cells
UniProt P31421, sequence (P31421 with tags, fused parts or gaps with the stated changes): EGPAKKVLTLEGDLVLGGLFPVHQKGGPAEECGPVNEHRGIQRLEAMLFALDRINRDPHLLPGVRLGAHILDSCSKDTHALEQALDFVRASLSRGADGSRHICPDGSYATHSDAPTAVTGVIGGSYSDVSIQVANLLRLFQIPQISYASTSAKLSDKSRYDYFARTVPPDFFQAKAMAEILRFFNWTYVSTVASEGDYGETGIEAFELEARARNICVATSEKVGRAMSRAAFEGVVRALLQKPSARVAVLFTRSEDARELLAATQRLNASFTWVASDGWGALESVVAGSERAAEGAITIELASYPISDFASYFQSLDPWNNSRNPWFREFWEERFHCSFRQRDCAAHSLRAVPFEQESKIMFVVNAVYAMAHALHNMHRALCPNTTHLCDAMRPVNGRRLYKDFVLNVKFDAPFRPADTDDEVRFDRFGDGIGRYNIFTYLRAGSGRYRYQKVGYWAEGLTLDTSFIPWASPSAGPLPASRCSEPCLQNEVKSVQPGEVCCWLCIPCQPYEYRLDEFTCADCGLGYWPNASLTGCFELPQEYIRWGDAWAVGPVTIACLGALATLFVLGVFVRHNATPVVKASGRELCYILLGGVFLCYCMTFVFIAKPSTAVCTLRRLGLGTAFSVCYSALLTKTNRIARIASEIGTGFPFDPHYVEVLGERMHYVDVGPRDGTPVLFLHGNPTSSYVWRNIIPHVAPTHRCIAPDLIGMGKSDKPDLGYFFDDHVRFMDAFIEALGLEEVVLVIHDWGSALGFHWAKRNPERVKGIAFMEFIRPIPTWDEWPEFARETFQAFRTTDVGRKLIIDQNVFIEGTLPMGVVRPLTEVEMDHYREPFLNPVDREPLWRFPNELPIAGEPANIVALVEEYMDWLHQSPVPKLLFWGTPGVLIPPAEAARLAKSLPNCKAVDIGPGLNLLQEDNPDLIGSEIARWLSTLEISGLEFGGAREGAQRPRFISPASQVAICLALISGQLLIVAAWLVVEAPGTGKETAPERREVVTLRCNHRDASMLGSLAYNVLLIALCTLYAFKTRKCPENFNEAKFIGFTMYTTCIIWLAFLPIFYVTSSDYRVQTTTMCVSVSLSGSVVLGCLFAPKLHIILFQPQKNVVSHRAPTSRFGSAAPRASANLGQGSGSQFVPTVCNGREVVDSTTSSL

[6] = target: mGluR3 (Rattus norvegicus, UniProt P31422, INS669ASEIGTGFPFDPHYVEVLGERMHYVDVGPRDGTPVLFLHGNPTSSYVWRNIIPHVAPTHRCIAPDLIGMGKSDKPDLGYFFDDHVRFMDAFIEALGLEEVVLVIHDWGSALGFHWAKRNPERVKGIAFMEFIRPIPTWDEWPEFARETFQAFRTTDVGRKLIIDQNVFIEGTLPMGVVRPLTEVEMDHYREPFLNPVDREPLWRFPNELPIAGEPANIVALVEEYMDWLHQSPVPKLLFWGTPGVLIPPAEAARLAKSLPNCKAVDIGPGLNLLQEDNPDLIGSEIARWLSTLEISGLE); assay: as above
UniProt P31422, sequence (P31422 with tags, fused parts or gaps with the stated changes): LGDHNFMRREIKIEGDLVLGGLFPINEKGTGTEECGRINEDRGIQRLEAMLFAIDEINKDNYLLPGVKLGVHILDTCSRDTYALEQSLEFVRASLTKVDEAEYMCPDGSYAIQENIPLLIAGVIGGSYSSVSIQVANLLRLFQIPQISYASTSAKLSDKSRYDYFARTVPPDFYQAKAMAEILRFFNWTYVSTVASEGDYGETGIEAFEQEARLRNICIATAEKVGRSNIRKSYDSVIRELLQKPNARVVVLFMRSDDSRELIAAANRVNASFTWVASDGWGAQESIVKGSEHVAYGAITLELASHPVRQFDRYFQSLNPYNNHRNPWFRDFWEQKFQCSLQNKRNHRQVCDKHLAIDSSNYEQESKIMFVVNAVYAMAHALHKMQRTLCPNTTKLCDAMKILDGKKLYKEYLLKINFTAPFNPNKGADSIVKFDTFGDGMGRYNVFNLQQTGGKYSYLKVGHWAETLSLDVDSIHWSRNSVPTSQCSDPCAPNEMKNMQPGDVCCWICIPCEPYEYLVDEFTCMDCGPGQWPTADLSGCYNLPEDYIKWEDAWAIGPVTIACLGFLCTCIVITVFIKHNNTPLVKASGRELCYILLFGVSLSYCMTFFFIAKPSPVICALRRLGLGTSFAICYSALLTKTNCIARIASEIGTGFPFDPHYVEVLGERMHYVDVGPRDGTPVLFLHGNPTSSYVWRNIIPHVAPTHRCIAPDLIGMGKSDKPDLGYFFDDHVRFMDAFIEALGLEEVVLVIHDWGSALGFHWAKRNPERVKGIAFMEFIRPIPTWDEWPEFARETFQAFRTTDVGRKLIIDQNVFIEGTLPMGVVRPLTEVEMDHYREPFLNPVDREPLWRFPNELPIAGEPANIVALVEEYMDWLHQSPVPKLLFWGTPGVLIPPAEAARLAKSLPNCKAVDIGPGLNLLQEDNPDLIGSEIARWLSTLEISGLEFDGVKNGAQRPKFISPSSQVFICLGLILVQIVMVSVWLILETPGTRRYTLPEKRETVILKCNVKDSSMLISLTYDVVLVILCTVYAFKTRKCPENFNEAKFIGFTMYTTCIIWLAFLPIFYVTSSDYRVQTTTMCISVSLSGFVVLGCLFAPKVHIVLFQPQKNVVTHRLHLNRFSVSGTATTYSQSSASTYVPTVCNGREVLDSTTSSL

[7] = system: mGluR2-TMD-3xTM4-I779A; assay: SiMPull subunit counting in the presence of ligands; parameters: species or system rat; conditions: for % Dimerization: SNAP-mGluR2-TMD-3xTM4-I779A in presence of the ligand, single replicates per experiment day; for effect of ligand on dimerization (SiMPull): saturating concentration
[8] = target: mGluR2 (Rattus norvegicus, UniProt P31421); assay: Calcium imaging (G protein chimera, GCaMP6f) in HEK 293 T cells
mGluR2 (Rattus norvegicus, UniProt P31421), sequence (P31421 19-872): as the sequence (P31421 19-872 C121A/A677S/A681F/A685G/I779A) above, with A103C, S659A, F663A, G667A, A761I counted along it

[9] = system: group II mGluR; parameters: method as in Hemstapat et al., 2007; conditions: ref Hemstapat et al., 2007; cited from earlier work
[10] = target: T2, mGluR2-C121A-I779A (Rattus norvegicus, UniProt P31421, C121A/I779A); assay: SiMPull subunit counting in the presence of ligands; conditions: for % Dimerization: SNAP-mGluR2-C121A-I779A in presence of the ligand, single replicates per experiment day
T2 construct: expressed in transfected cells; host or cells: HEK 293 T (detergent lysate, pulled down by anti-HA antibody)
T2 sequence (P31421 19-872 C121A/I779A): as the sequence (P31421 19-872 C121A/A677S/A681F/A685G/I779A) above, with S659A, F663A, G667A counted along it

[11] = target: T3, mGluR2-C121A (Rattus norvegicus, UniProt P31421, C121A); assay: as above; conditions: SNAP-mGluR2-C121A in presence of the ligand; single replicates per experiment day
T3 construct: expressed in transfected cells; host or cells: HEK 293 T (detergent lysate, pulled down by anti-HA antibody)
T3 sequence (P31421 19-872 C121A): as the sequence (P31421 19-872 C121A/A677S/A681F/A685G/I779A) above, with S659A, F663A, G667A, A761I counted along it

[12] = system: mGluR2-TMD-3xTM4; assay: as above; parameters: species or system rat; conditions: for % Dimerization: SNAP-mGluR2-TMD-3xTM4 in presence of the ligand, single replicates per experiment day
[13] = target: T4, mGluR2-C121A-3xTM4 (Rattus norvegicus, UniProt P31421, A677S/A681F/A685G/C121A); assay: as above; conditions: for % Dimerization: SNAP-mGluR2-C121A-3xTM4 in presence of the ligand, single replicates per experiment day
T4 construct: expressed in transfected cells; host or cells: HEK 293 T (detergent lysate, pulled down by anti-HA antibody)
T4 sequence (P31421 19-872 C121A/A677S/A681F/A685G): as the sequence (P31421 19-872 C121A/A677S/A681F/A685G/I779A) above, with A761I counted along it

[14] = system: SNAP-tagged mGluR2 and mGluR3 constructs; assay: Surface expression measurements; type: cell-based, rat; conditions: construct; single measurements
Source text: ImageJ was used to analyze fluorescence intensity of cell clusters. […] Fluorescence intensity values for each construct were normalized to wild-type values for comparison.

[15] = target: mGluR2-3xTM4 (Rattus norvegicus, UniProt P31421, A677S/A681F/A685G); assay: Calcium imaging (G protein chimera, GCaMP6f) in HEK 293 T cells; conditions: for Calcium response amplitude: normalized to 1 mM glutamate, replicates
mGluR2-3xTM4, sequence (P31421 19-872 A677S/A681F/A685G): as the sequence (P31421 19-872 C121A/A677S/A681F/A685G/I779A) above, with A103C, A761I counted along it

[16] = target: T5, mGluR2-I779A (Rattus norvegicus, UniProt P31421, I779A); assay: Calcium imaging in HEK 293 T cells; type: cell-based; conditions: for Calcium response amplitude: mGluR2-I779A
T5 construct: we performed calcium imaging experiments with mutations in the full-length mGluR2 background; expressed in transfected cells; host or cells: HEK 293 T
T5 sequence (P31421 19-872 I779A): as the sequence (P31421 19-872 C121A/A677S/A681F/A685G/I779A) above, with A103C, S659A, F663A, G667A counted along it
Experimental: Approximately 30 ROIs were analyzed per movie.
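Wherever Basal FRET Response (%) is given: receptor HaloTag labeled with JF549 donor and JF646 acceptor (1:3), FRET taken as acceptor over summed donor plus acceptor fluorescence intensity, imaged at room temperature.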

mGluR3 (Rattus norvegicus, UniProt P31422), sequence (P31422 23-879): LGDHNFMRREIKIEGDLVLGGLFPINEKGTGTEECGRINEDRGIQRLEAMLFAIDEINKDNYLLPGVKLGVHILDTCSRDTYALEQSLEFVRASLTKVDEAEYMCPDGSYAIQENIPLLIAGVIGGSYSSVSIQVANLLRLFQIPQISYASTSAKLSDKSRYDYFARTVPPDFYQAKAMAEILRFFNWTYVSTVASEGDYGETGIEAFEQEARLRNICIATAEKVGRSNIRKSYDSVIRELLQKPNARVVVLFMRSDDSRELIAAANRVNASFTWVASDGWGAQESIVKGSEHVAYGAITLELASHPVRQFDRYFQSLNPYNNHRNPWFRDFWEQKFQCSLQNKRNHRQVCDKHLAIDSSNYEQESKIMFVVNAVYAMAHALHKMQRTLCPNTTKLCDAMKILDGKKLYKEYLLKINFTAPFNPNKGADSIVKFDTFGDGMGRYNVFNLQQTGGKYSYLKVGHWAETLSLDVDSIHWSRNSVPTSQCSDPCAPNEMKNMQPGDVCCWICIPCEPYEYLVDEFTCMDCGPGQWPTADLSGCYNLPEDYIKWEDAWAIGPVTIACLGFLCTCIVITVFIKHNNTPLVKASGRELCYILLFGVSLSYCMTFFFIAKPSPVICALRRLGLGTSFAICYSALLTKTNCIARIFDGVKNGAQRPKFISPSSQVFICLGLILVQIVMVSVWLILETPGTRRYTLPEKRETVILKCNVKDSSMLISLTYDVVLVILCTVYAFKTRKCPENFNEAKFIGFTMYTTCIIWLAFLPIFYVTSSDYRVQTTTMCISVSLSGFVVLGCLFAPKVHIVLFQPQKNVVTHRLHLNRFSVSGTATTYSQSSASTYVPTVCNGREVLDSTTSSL

MNI 137
block of functional (calcium) glutamate response ([1]; MNI 137 10 μM): full block of functional responses
Maximum % Inhibition ([1]; mGluR3, Experiment: Function): 100%
% Dimerization [2]: 80.57% and 69.39% and 68.4% and 70.29% and 73.87% and 66.8% and 70.292% and 73.871% and 80.566% and 69.3893%
effect of ligand on dimerization (SiMPull) [2]: no sensitivity
% Dimerization [3]: 60.52% and 74.21% and 73.33% and 77.72% and 88.90% and 81.43%
effect of ligand on dimerization (SiMPull) ([3]; saturating concentration): clear increase
% Dimerization [4]: 49.83% and 50.71% and 40.36% and 45.67% and 37.52% and 54.71%
block of glutamate-induced FRET responses ([5]; MNI 137 10 μM): 32.0 ± 4.5%
Maximum % Inhibition ([5]; mGluR2, Experiment: FRET): 29.8% and 42.4% and 23.8%
block of glutamate-induced FRET responses ([6]; MNI 137 10 μM): 42.9 ± 7.4%
block of glutamate-induced FRET responses ([6]; MNI 137 50 μM, n = 3): 44.9 ± 8.3%
Basal FRET Response (%) ([6]; mGluR3-Halo-ICL2, absence of glutamate, individual measurements): 13.3% and 15.2% and 5% and 5.6% and 0% and 19.5% and 7.8% and 52%
% Dimerization [7]: 46.88% and 52.99% and 50.80% and 55.60% and 41.02% and 44.69%
effect of ligand on dimerization (SiMPull) [7]: prevented any PAM- or NAM-induced dimerization shifts
block of functional (calcium) glutamate response ([8]; MNI 137 10 μM): full block of functional responses
Maximum % Inhibition ([8]; mGluR2, Experiment: Function): 100%
IC50 [9]: ~10 nM
% Dimerization [10]: 83.51% and 83.55% and 76.24% and 73.81% and 83.57% and 74.66%
effect of ligand on dimerization (SiMPull) ([10]; saturating concentration): significantly increases dimerization
% Dimerization [11]: 71.52% and 91.33% and 86.77% and 100.30% and 93.63% and 83.88%
% Dimerization [12]: 39.03% and 46.76% and 55.63% and 64.38% and 47.94% and 59.01%
% Dimerization [13]: 70.00% and 81.03% and 62.91% and 67.92% and 62.85% and 68.46%

SNAP-mGluR2-P778A
Surface Expression [14]: 0.58 and 0.76 and 0.68 and 0.87 and 0.59 and 1.10 and 0.91

Cc1c(C(N)=O)nc2n1C[C@@H](COc1ccc(C(C)(C)C)cc1)O2 [TASP]
% Dimerization [2]: 70.24% and 67.71% and 72.49% and 72.50% and 70.98% and 74.03%
effect of ligand on dimerization (SiMPull) [2]: no sensitivity
% Dimerization [3]: 52.39% and 61.74% and 61.54% and 62.46% and 33.04% and 41.52%
% Dimerization [4]: 50.00% and 40.35% and 44.84% and 41.46% and 44.90% and 44.88%
% Dimerization [7]: 47.45% and 39.66% and 50.29% and 36.75% and 47.53% and 38.72%
effect of ligand on dimerization (SiMPull) [7]: prevented any PAM- or NAM-induced dimerization shifts
% Dimerization [10]: 59.23% and 63.47% and 55.82% and 58.53% and 66.92% and 63.85%
% Dimerization [11]: 76.12% and 87.00% and 99.52% and 87.93% and 80.12% and 79.00%
% Dimerization [12]: 69.61% and 70.23% and 79.80% and 76.57% and 71.76% and 76.09%
effect of ligand on dimerization (SiMPull) ([12]; saturating concentration): clear increase in dimerization
% Dimerization [13]: 78.37% and 85.60% and 87.01% and 85.50% and 86.03% and 88.59%
effect of ligand on dimerization (SiMPull) ([13]; saturating concentration): significantly increases dimerization

COc1ccccc1Oc1ccc(N(Cc2cccnc2)S(=O)(=O)CC(F)(F)F)cc1 [LY487379, N-(4-(2-methoxyphenoxy)phenyl)-N-(2,2,2-trifluoroethylsulfonyl)pyrid-3-ylmethylamine]
EC50 [15]: 270 ± 60 nM
Calcium response amplitude ([15]; LY487379 1 nM): 0.00
Calcium response amplitude ([15]; LY487379 10 nM): 0.14 and 0.16 and 0.09 and 0.00
Calcium response amplitude ([15]; LY487379 100 nM): 0.27 and 0.19 and 0.25
Calcium response amplitude ([15]; LY487379 1 uM): 0.80 and 0.82 (2×) and 0.66
Calcium response amplitude ([15]; LY487379 3 uM): 0.86 and 0.89
Calcium response amplitude ([15]; LY487379 10 uM): 0.94 and 0.93 and 0.86
Calcium response amplitude ([15]; LY487379 100 uM): 0.97 and 0.91 and 0.99
EC50 [8]: 450 ± 100 nM
Calcium response amplitude ([8]; LY487379 1 nM, mGluR2): 0.00
Calcium response amplitude ([8]; LY487379 1 nM, normalized to 1 mM glutamate, replicates): 0.00
Calcium response amplitude ([8]; LY487379 10 nM, mGluR2): 0.00
Calcium response amplitude ([8]; LY487379 10 nM, normalized to 1 mM glutamate, replicates): 0.00
Calcium response amplitude ([8]; LY487379 100 nM, normalized to 1 mM glutamate, replicates): 0.09 and 0.00 and 0.07 and 0.33
Calcium response amplitude ([8]; LY487379 1 uM, mGluR2): 0.53 and 0.49 and 0.68 and 0.50 and 0.51 and 0.46
Calcium response amplitude ([8]; LY487379 1 uM, normalized to 1 mM glutamate, replicates): 0.53 and 0.49 and 0.68 and 0.50 and 0.51 and 0.46
Calcium response amplitude ([8]; LY487379 3 uM, mGluR2): 0.70 and 0.58 and 0.72
Calcium response amplitude ([8]; LY487379 3 uM, normalized to 1 mM glutamate, replicates): 0.70 and 0.58 and 0.72
Calcium response amplitude ([8]; LY487379 10 uM, mGluR2): 0.61 and 0.56 and 0.77 and 0.92 and 0.74 and 0.69
Calcium response amplitude ([8]; LY487379 10 uM, normalized to 1 mM glutamate, replicates): 0.61 and 0.56 and 0.77 and 0.92 and 0.74 and 0.69
Calcium response amplitude ([8]; LY487379 100 uM, mGluR2): 0.76 and 0.82 and 0.73 and 0.74
Calcium response amplitude ([8]; LY487379 100 uM, normalized to 1 mM glutamate, replicates): 0.76 and 0.82 and 0.73 and 0.74
Calcium response amplitude ([16]; LY487379 100 nM): 0.00
Calcium response amplitude ([16]; LY487379 3 uM): 0.21 and 0.14
Calcium response amplitude ([16]; LY487379 10 uM): 0.34 and 0.27
Calcium response amplitude ([16]; LY487379 100 uM): 0.49 and 0.44
shift of LY48 EC50 compared to mGluR2 ([16]; calcium imaging, rightward): 12 fold
EC50 ([16]; read-out: LY48 EC50, calcium imaging): 5460 ± 10 nM

From paper PMC8102066 (eLife, 2021)
